Test results published in patent US20250025526A1, “COMBINATION THERAPY FOR THE TREATMENT OF FRIEDREICH'S ATAXIA” (Stealth BioTherapeutics Inc., priority 2023, published 2025).
Where a SMILES comes first, the peptide text is derived from it. [ ]: non-standard residue; d: D form. Dmt = Cc1cc(O)cc(C)c1C[C@H](N)C(=O)O

Key:
[1] = test system: healthy (GM08402; Coriell) fibroblasts; assay: Cytoprotection assay, RSL3-induced ferroptosis, healthy fibroblasts (CellTiter-Glo cell viability); assay type: cell-based, human; settings: healthy patient derived fibroblasts; 18 hour pre-incubation with test compounds 0.001 uM to 1 uM; then 1 uM RSL3 for 4 hours; FIG. 1
Experimental: (§1) To initiate the cytoprotection experiment, healthy (GM08402; Coriell) and FA (GM03665; Coriell) fibroblasts were resuspended in assay medium (Minimum Essential Medium Eagle w/Earles Salts and L-glutamine (MEM; Corning)+15% Qualified Fetal Bovine Serum (FBS)+penicillin (100 U)/streptomycin ([…]), seeded at 10,000 cells per well in a clear, tissue cultured treated 96 well plate), and incubated at 37° C. Eight hours later, the assay medium was manually removed and test compounds, elamipretide (Stealth Biotherapeutics Inc., Needham, MA) and omaveloxolone were added to a final volume of 100 uL at concentrations ranging between 0.001 uM and 1 uM. Following an 18 hour incubation at 37° C., the assay medium was again manually removed. Healthy fibroblasts and FA fibroblasts were then treated with 100 μL of 1 uM and 0.5 uM RSL3 (Sigma, Catalog #1219810), respectively, in assay medium for 4 hours at 37° C. Cell viability was assessed with CellTiter-Glo Luminescent Cell Viability (Promega). Luminescence units were quantified by GEN5 software on a BioTek SYNERGY neo2 plate reader (LUM filter). The data obtained for the health cells are graphically illustrated in FIG. 1 and the data obtained for the FA fibroblasts are graphically illustrated in FIG. 2. […]

[2] = test system: FA (GM03665; Coriell) fibroblasts; assay: Cytoprotection assay, RSL3-induced ferroptosis, FA fibroblasts (CellTiter-Glo cell viability); assay type: cell-based, human; settings: FA patient derived fibroblasts; 18 hour pre-incubation with test compounds 0.001 uM to 1 uM; then 0.5 uM RSL3 for 4 hours; FIG. 2
Experimental: as §1

SMILES | protective/rescue effect on the RSL3 treated cells (cell viability) [1] | protective/rescue effect on the RSL3 treated cells (cell viability) [2]
CC1(C)CC[C@]2(NC(=O)C(C)(F)F)CC[C@]3(C)[C@H](C(=O)C=C4[C@@]5(C)C=C(C#N)C(=O)C(C)(C)[C@@H]5CC[C@]43C)[C@@H]2C1 [omaveloxolone, Omaveloxolone] | significant protective/rescue effect | significant protective/rescue effect
Cc1cc(O)cc(C)c1C[C@H](NC(=O)[C@H](N)CCCNC(=N)N)C(=O)N[C@@H](CCCCN)C(=O)N[C@@H](Cc1ccccc1)C(N)=O [elamipretide, H-D-Arg-2′,6′Dmt-Lys-Phe-NH2] (H-[dR][Dmt]KF-NH2) | no apparent effect | no apparent effect
